In brackets after ≈: the same amount, converted by molar mass.
Conditions: buffer; pH 7.4; 200.0 µM

Point of comparison: `COc1ccccc1NC(=S)N(Cc1cccs1)C1CCCC1`, solubility kinetic 6 µg/mL (≈ 17.3 µM). Against it:
- COc1ccccc1C(=O)COC(=O)CN1C(=O)c2ccccc2C1=O — within 1.5-fold, 6.4 µg/mL (≈ 18.1 µM)
- CCCCCc1c(O)nc(SCCN(CC)CC)[nH]c1=O.Cl — higher, > 52.5 µg/mL
- COc1cc(S(=O)(=O)N2CCN(C(=O)C3CC3)CC2)ccc1NC(C)=O — higher, > 57.2 µg/mL
- Cc1ncc(CN2CCN(CCc3ccccc3)C(CCO)C2)s1 (centres undefined) — 6.6-fold higher, 39.7 µg/mL (≈ 115 µM)
- Cc1cccc(C)c1NC(=O)N1CC=CCC1 — higher, > 34.5 µg/mL
- O=C(O)CN1C(=O)/C(=C/c2cccc(Cl)c2)Oc2ccccc21 — 5.1-fold higher, 30.8 µg/mL (≈ 93.4 µM)
- CCCNC(=O)COCc1cc(-c2ccc3c(c2)OCO3)on1 — higher, > 47.7 µg/mL
- O=C(CCNC(=O)c1ccccc1Cl)Nc1ccncc1 — 7.4-fold higher, 44.3 µg/mL (≈ 146 µM)
- Clc1ccc(OCCn2cnc(Cl)c2Cl)cc1 — 3.5-fold higher, 21.1 µg/mL (≈ 72.4 µM)
- CC1CCN(C(=O)COc2cccc3c2CCN(C)C3=O)CC1 — higher, > 47.5 µg/mL
- COc1ccc(/C(N)=N/OC(=O)c2cccc([N+](=O)[O-])c2C)cc1 — 5.5-fold lower, 1.1 µg/mL (≈ 3.34 µM)
- O=C(CSc1ccccc1F)NC(=O)c1ccccc1Br — higher, > 55.2 µg/mL
- Br.Nc1nc2c(s1)CCc1ccccc1-2 — 6.7-fold higher, 40.3 µg/mL
- CCCCSc1nc2sc3c(c2c(=O)[nH]1)CC(C)(CC)OC3 (centres undefined) — 12-fold lower, 0.5 µg/mL (≈ 1.48 µM)
- CN(CC(=O)Nc1ccccc1Cl)C(=O)CN1C(=O)C2CC=CCC2C1=O (centres undefined) — 8.4-fold higher, 50.3 µg/mL (≈ 129 µM)
- CCN(C(=S)NC(=O)c1ccco1)c1cccc2ccccc12 — 7.8-fold higher, 46.5 µg/mL (≈ 143 µM)
- O=c1[nH]oc2cc(Cl)ccc12 — higher, > 25.4 µg/mL
- COCCNC(=O)c1cccc2c1-c1ccccc1C2=O — higher, > 42.2 µg/mL
- Cc1ccc(NC(=O)Cn2ccnc2)cc1C — 5.1-fold higher, 30.4 µg/mL (≈ 133 µM)
- Cc1nc2ccc([N+](=O)[O-])cc2c(=O)n1Cc1ccc(F)cc1 — within 1.5-fold, 4.7 µg/mL (≈ 15 µM)
- CCOc1ccc(NC(=O)CNC(=O)Cc2ccccc2)cc1 — within 1.5-fold, 4.4 µg/mL (≈ 14.1 µM)
- CC1(/[N+]([O-])=C/c2ccc(Cl)cc2Cl)CCCCC1=O (centres undefined) — 7.1-fold higher, 42.9 µg/mL (≈ 143 µM)
- CC(C)C(=O)NC(=S)Nc1c(Cl)ccc2nsnc12 — 6.7-fold higher, 40.1 µg/mL (≈ 127 µM)
- O=[N+]([O-])c1ccc(Oc2ccc(S(=O)(=O)N3CCOCC3)cc2)cc1 — 3-fold higher, 18.1 µg/mL (≈ 49.7 µM)
- O=C(O)CCC(=O)Nc1nc2ccc([N+](=O)[O-])cc2s1 — higher, > 44.3 µg/mL
- O=C1N=C(N2CCN(c3ccccc3)CC2)S/C1=C/c1ccco1 — 2.9-fold higher, 17.4 µg/mL (≈ 51.3 µM)
- COc1ccc(CNC(=O)c2cc(=O)c3cc(C)cc(C)c3o2)cc1 — lower, < 0.7 µg/mL
- CCCCCc1c(O)nc(SCCN(C)C)[nH]c1=O.Cl — higher, > 48.3 µg/mL
- COc1cc(NC(=O)COC(C)=O)cc(OC)c1OC — 6.5-fold higher, 39 µg/mL (≈ 138 µM)
- CCCNC(=O)CN1C(=O)NC(CCSC)C1=O (centres undefined) — higher, > 41 µg/mL
- Cc1cc(Cc2c(O)[nH]c(=S)[nH]c2=O)ccc1OC(C)C — 5.8-fold higher, 34.8 µg/mL (≈ 114 µM)
- O=C(COC(=O)C1CC1)NC(=O)c1ccccc1 — higher, > 37.1 µg/mL
- O=C(Nc1cccc(S(=O)(=O)NCc2ccco2)c1)c1ccc(Cl)cc1 — 2-fold lower, 3 µg/mL (≈ 7.68 µM)
- Cc1ccc(CNC(=O)CSc2nc(C)cs2)cc1 — higher, > 43.9 µg/mL
- O=C(CC1SCCNC1=O)Nc1ccc(Cl)cc1 (centres undefined) — higher, > 42.7 µg/mL
- CC(CN1CCCC1)OC(=O)c1cccc(F)c1.Cl (centres undefined) — 6.6-fold higher, 39.6 µg/mL
- CCOC(=O)c1cc(-c2csc(-c3ccc(C(C)(C)C)cc3)n2)on1 — 15-fold lower, 0.4 µg/mL (≈ 1.12 µM)
- Cn1c(-c2ccccc2)cc2ccccc21 — 10-fold lower, 0.6 µg/mL (≈ 2.89 µM)
- CC(NS(=O)(=O)c1ccc([N+](=O)[O-])cc1)C(=O)NN (centres undefined) — higher, > 43.2 µg/mL
- CC1Cc2cc(/C=C3/SC(=S)NC3=O)ccc2O1 (centres undefined) — 1.6-fold higher, 9.3 µg/mL (≈ 33.5 µM)
- COc1ccc(OCC(O)CNC(=O)Nc2ccc(C(C)(C)C)cc2)cc1 (centres undefined) — lower, < 0.4 µg/mL
- C=CCNC(=O)N[C@@H](Cc1ccccc1)C(=O)OC — higher, > 39.3 µg/mL
- O=C(Cc1ccc([N+](=O)[O-])cc1)Nc1nccs1 — within 1.5-fold, 4.8 µg/mL (≈ 18.2 µM)
- COc1ccc(CNC(=O)c2cc3ccccc3o2)cc1OC — higher, > 46.7 µg/mL
- C/C(=N\NC(=O)c1cccnc1)c1cccc([N+](=O)[O-])c1 — higher, > 42.6 µg/mL
- Cc1noc2ncnc(Oc3ccc(C(C)(C)C)cc3)c12 — lower, < 0.2 µg/mL
- CC(C(=O)O/N=C(\N)c1cccnc1)c1ccc([N+](=O)[O-])cc1 (centres undefined) — 6.9-fold higher, 41.2 µg/mL (≈ 131 µM)
- Cc1cccc(C)c1OCC(=O)NC1CC1 — higher, > 32.9 µg/mL
- CC(C)CC(=O)Nc1ccc2c(c1)nc(CCN1CCCCC1)n2C — higher, > 51.4 µg/mL
- Nc1nc(NCCO)nc(NCc2ccccc2)c1[N+](=O)[O-] — 2.6-fold higher, 15.6 µg/mL (≈ 51.3 µM)
- O=C(CCc1nc(-c2ccccn2)no1)NCc1ccc2c(c1)OCO2 — 8.8-fold higher, 52.5 µg/mL (≈ 149 µM)
- COc1cc2nc(Cl)nc(N3CCOCC3)c2cc1OC — 2.2-fold higher, 13.1 µg/mL (≈ 42.3 µM)
- Cc1ccc(C(=O)NCC(=O)Nc2ccc(F)c(F)c2F)cc1 — 2.6-fold lower, 2.3 µg/mL (≈ 7.14 µM)
- CSc1ccccc1NC(=O)CCc1ccccc1 — 5.9-fold higher, 35.5 µg/mL (≈ 131 µM)
- CCOC(=O)C1CCN(C(=S)Nc2ccc(C)cc2)CC1 — 3.3-fold higher, 19.9 µg/mL (≈ 64.9 µM)
- COc1cc(C)c(NC(=S)NCCCN2CCOCC2)cc1OC — higher, > 53 µg/mL
- CC1CC1C(=O)Nc1nc(-c2ccc(Cl)s2)cs1 (centres undefined) — 10-fold lower, 0.6 µg/mL (≈ 2.01 µM)
- CC(NC(=O)c1ccco1)c1ccc(-n2ccnc2)cc1 (centres undefined) — higher, > 42.2 µg/mL

Reference: PubChem BioAssay AID1996
